Source: ChEMBL document CHEMBL3507680, “University of Dundee, Gates Library screen for HepG2 cell viability”

Test: Human HepG2 cell viability assay in 384 well format
Format: toxicity, cell-based
Parameters: dose 125 nL, time 70.5 hour; concentration not given beside the values
Conditions: HepG2 cells, read-out: Inhibition

SMILES | cytotoxicity at 70.5 h
CC1CCN(c2ccc(NC(=O)CCn3cccn3)cc2)CC1 | -9.93%
CNC(=O)CCCNCc1c(C(C)C)nn(C)c1N(C)C | 14.4%
CC(C)CC(=O)N1CC[C@H]2N(C)CC[C@@]2(C(=O)Nc2cccnc2)CC1 | -9.05%
COc1cccc(CN2CCC(O)(c3ccc(C)cn3)CC2)c1OC | 4.46%
O=C([C@H]1COC[C@H]2CN(c3ccncn3)C[C@H]21)N1CCCC1 | 13.9%
CCC(O)CN(C)Cc1nnc2ccccn12 (stereo unspecified) | 9.61%
CC1c2ncc(COCC3CCOCC3)n2CCN1C(=O)c1ccco1 (stereo unspecified) | -10.5%
Cn1nccc1NCc1cc2cc(F)ccc2o1 | 23.2%
CC(=O)Nc1nc(C(=O)Nc2ccc(F)cc2)cs1 | -4.84%
Cc1cnn(CC2CCCCN2C(=O)c2cc(C(N)=O)cs2)c1 (stereo unspecified) | 28.2%
Cc1nn(CCn2ccnc2-c2cc3n(n2)CCCNC3)c(C)c1Cl | 13.8%
O=C(NCCNC(=O)C1Cc2cc(F)ccc2O1)C1CCCCC1 (stereo unspecified) | -9.82%
COc1ccc(C(=O)NS(=O)(=O)c2cc(Cl)sc2Cl)cc1OC(F)F | -3.93%
NC(=O)CN1CC(O)c2ccccc2S1(=O)=O (stereo unspecified) | -9.19%
C[C@@H]1CN(C(=O)c2ccc(C#N)nc2)C[C@@]1(O)C1CC1 | 13.9%
CSc1nccn1-c1cccc(C(=O)NCCCN2CCOCC2)c1 | 1.7%
NC(=O)CN1CCCC(C(=O)N2CCC(Oc3ncccn3)CC2)C1 (stereo unspecified) | -2.67%
Cc1cc(C)cc(OCCN(C)C(=O)NC(C)c2nncn2C)c1 (stereo unspecified) | 17.7%
c1cncc(NCCNC2CCSCC2)c1 | -2.74%
O=C(c1ccnnc1)N1CC[C@]2(C[C@H](Oc3ncccc3F)CO2)C1 | -5.53%
Cc1cnn(CCC(=O)N2CCN(c3nccs3)CC2)c1 | 17.7%
Cc1ccc(C#N)c(N2CCC3(CCC(=O)N(CC(N)=O)C3)CC2)n1 | -9.24%
c1cncc(OC[C@]23COC[C@H]2CN(C2CCC2)C3)c1 | -1.17%

SMILES | cytotoxicity at 70.5 h
NC(=O)c1ccc(N2CCN(CCCc3cn[nH]c3)CC2)cc1 | -0.688%
Cc1cc(CNCC2Cn3nnc(C)c3CO2)oc1C (stereo unspecified) | -7.06%
CCN(C)c1ccc(CNC(=O)c2ccc(NC(N)=O)cc2)cc1F | -17.6%
Cc1nn(CCO)c(C)c1CNC1CCC(C)(C)c2ccccc21 (stereo unspecified) | -5.72%
Cc1ccc(CN2CCC3(CCCN3S(C)(=O)=O)CC2)s1 | -11.8%
CSc1ccc(C(C(=O)O)N2CCCC2)cc1 (stereo unspecified) | -7.97%
COc1ccnc(N2CCC(=O)N(CC3CC3)C(C(C)C)C2)n1 (stereo unspecified) | 32.2%
CC(=O)N1CCC2(CC1)CN(C(=O)c1cccc3[nH]ccc13)C2 | -11.6%
O=C(NCCOc1ncc(Cl)cc1Cl)c1ccncc1 | 1.47%
CC(C)(C)CN(CCC#N)C(=O)Nc1cccc(N2CCNC2=O)c1 | -10.7%
COc1ccccc1-c1cc(C(F)(F)F)c2c(C)nn(CC(=O)O)c2n1 | 18.1%
CCCn1cc(NC(=O)NCC2CCS(=O)(=O)C2)nn1 (stereo unspecified) | -9.78%
CNc1nc2c(c(C(=O)N3CCCC3)n1)CN(C(=O)C1CCCC1)CC2 | 15.7%
CN(CC1(O)CCCN(c2ccccn2)C1)C(=O)Cc1ccsc1 (stereo unspecified) | -9.68%
Fc1ccccc1Oc1nccnc1C1CCCN(C2CCOCC2)C1 (stereo unspecified) | -9%
Cc1ccccc1CC(C)(C)NC(=O)CCOc1cccc(C(N)=O)c1 | 4.51%
CC(C)Sc1ncccc1C(=O)NCc1ccoc1 | -9.56%
CNC(=O)Cc1noc(-c2cc3c(s2)CCC(C)C3)n1 (stereo unspecified) | -3.99%
CC(=O)c1cccc(S(=O)(=O)N2CCC(c3n[nH]c(C)n3)CC2)c1 | 2.75%
CC(C)Nc1ncnc2c1CCN(C(=O)c1ccncc1F)CC2 | 5.41%
CC(=O)Nc1ccc(CC(=O)N2CC(S(=O)(=O)C3CCCCC3)C2)cc1 | -3.63%
Cc1cn2c(n1)C(CNCC1=Cc3ccccc3OC1)CCC2 (stereo unspecified) | 10.6%
CCc1nccn1C1CCCN(C(=O)Cc2n[nH]c3ccccc23)C1 (stereo unspecified) | -1.24%

SMILES | cytotoxicity at 70.5 h
Cn1nnc2c1CCN(C(C(=O)N1CCCCC1)c1ccccc1)C2 (stereo unspecified) | -7.33%
CC(NC(=O)NCCn1ccnc1)c1nncn1C (stereo unspecified) | 20.5%
CCN(CCCNC(=O)c1ccc(C)[nH]c1=O)S(C)(=O)=O | -0.303%
O=C(CC1CCCC1)N1C[C@@H]2CCN(c3cccnc3)C[C@@H]2C1 | -7.38%
O=C(C1=COCCO1)N1CC(Oc2nc3c(C(F)(F)F)cccc3s2)C1 | 10.3%
O=C(NCc1cccnc1-n1cccn1)C1CC(=O)N(CC2CC2)C1 (stereo unspecified) | -13.2%
c1cncc(CN(Cc2ccc3c(c2)OCCO3)CC2CCCO2)c1 (stereo unspecified) | 25.2%
CCOc1ccccc1N1CCN(C(=O)NCc2cc[nH]n2)CC1 | 18.3%
Cc1cc(C(=O)Nc2cnn(CC(F)(F)F)c2)nc(N2CCOCC2)n1 | -13.4%
C[C@@H]1C(=O)NC[C@H]2CN(Cc3ccsc3)C[C@H]21 | -2.8%
CN1CCC(N(C)C(=O)c2cnn(-c3cc(F)ccc3F)c2N)CC1 | -0.483%
CCc1nnc2n1CCN(Cc1cccc3c1OCCO3)C2 | 21.6%
CC(C)c1nccc(-c2nccn2CCS(C)(=O)=O)n1 | -16.1%
Cc1ccc2[nH]c(=O)cc(C(=O)N[C@@H]3C[C@@H](CO)N(C)C3)c2c1 | -14.7%
COc1c(F)cc(NC(=O)N2CCC(CSC)C2)cc1F (stereo unspecified) | 16.5%
CCc1nnc(CN2CCC(c3nc4cc(Cl)ccc4o3)CC2)o1 | -11.3%
CN(Cc1nc(Cc2cccc(C(F)(F)F)c2)no1)CC1CCCCO1 (stereo unspecified) | -11.5%
CC(C)Oc1ccc(NCc2ccc([S+](C)[O-])cc2)c(F)c1 (stereo unspecified) | 7.01%
CCc1nc(CN(C(C)=O)C2CCN(Cc3cnc(C)cn3)C2)no1 (stereo unspecified) | 23.6%
O=C(c1cc[nH]n1)N1CCC(Nc2cccnn2)CC1 | 14.8%
CCCn1nc2c(cc1=O)CN(Cc1c(C)noc1C)CC2 | -6.66%
O=C(Cn1nc2c(cc1=O)CCCC2)NC(Cc1ccccc1)C(=O)O (stereo unspecified) | -10.7%
O=C(c1ccc(Cl)cc1)N1CCC(N2CCNC2=O)CC1 | -3.41%

SMILES | cytotoxicity at 70.5 h
Cc1cnc(N2C[C@@H]3CCN(CC(=O)N(C)C)C(=O)[C@H]3C2)nc1 | 4.34%
CC(O)CN1CCN(Cc2cccc(C(=O)N(C)C)c2)CC1 (stereo unspecified) | -2.45%
CCNC(=O)[C@@H]1C[C@@H](NC(=O)c2cccn2C)CN1CCCSC | -6.56%
CCn1cc2c(n1)CN(C(=O)c1ccncc1)CC2COCC1CC1 (stereo unspecified) | -25.7%
COc1ccc2[nH]cc(C3CCN(CCC(N)=O)CC3)c2c1 | -11.2%
CC(C)S(=O)(=O)N1CCOC(CCc2ccccc2)C1 (stereo unspecified) | -8.39%
Cc1ccc(N2CCN(Cc3ccccc3)C3(CCNCC3)C2=O)cn1 | -4.83%
Cc1nnc(NCc2cccnc2OCC(F)(F)F)c(C#N)c1C | -0.691%
Cc1nc(C2CCCN(C(=O)c3cc(-c4ccccc4)[nH]n3)C2)no1 (stereo unspecified) | -3.98%
Cc1nc2c(c(NC3CC3)n1)CCN(C(=O)C1(C#N)CC1)CC2 | -16.3%
CN(Cc1ccccn1)C(=O)c1ccc2c(c1O)OC(C)(C)C2 | 11.6%
Cn1cccc1C(=O)N1C[C@H]2CN(Cc3cccnc3)C[C@H]2C1 | -1.49%
CC(CNC(=O)c1ccn(-c2ccc(F)cc2)n1)Cn1cccn1 (stereo unspecified) | -22.8%
Cc1nc(CO[C@@H]2CN(Cc3cnn(C)c3)[C@@H]3COC[C@@H]32)cs1 | 5.43%
O=C(c1ccnnc1)N1CCc2onc(Cn3cccn3)c2C1 | -3.08%
O=C(c1cc2cccc(F)c2[nH]1)N1C[C@@H](O)[C@H](N2CCOCC2)C1 | -5.87%
CC(C)Oc1ncccc1CNC(=O)N1CCC1c1ccccc1 (stereo unspecified) | 26.6%
CNC(=O)NC(=O)CN1CCCN(CC(F)(F)F)CC1 | -7.82%
CC(C)CO[C@@H]1CC[C@H]2[C@H]1OCCN2S(=O)(=O)C1CC1 | 12.4%
CC(O)CN1CCN(C(=O)c2cccc(CC#N)c2)CC1 (stereo unspecified) | 12.7%
Cc1ccc(CN2CC[C@H]3OCC[C@@H](C(=O)NCC4CC4)[C@@H]3C2)o1 | -5.45%
O=C(NCc1nc(C2CCCCC2)no1)C1CC(=O)N(C2CC2)C1 (stereo unspecified) | 5.86%
Cc1ncsc1C(=O)N1CCCC(CO)(CC2CC2)C1 (stereo unspecified) | -7.6%

SMILES | cytotoxicity at 70.5 h
Cc1nccc(-c2cccc(NCC(=O)N3CCCC(C)C3)c2)n1 (stereo unspecified) | -9.5%
Cc1c[nH]c(C2CCCN2C(=O)CCc2c(C)n[nH]c2C)n1 (stereo unspecified) | -11.3%
NC(=O)C1(CCCc2ccccn2)CCCN(Cc2ncc[nH]2)C1 (stereo unspecified) | 1.81%
Cc1noc(C)c1CN1CC[C@H]2O[C@@H](C(=O)N3CCCC3)CC[C@H]21 | 6.38%
COc1ccc(Cl)cc1CCNC(=O)NCc1ncnn1C | -13.1%
CC(C)CCN1C[C@H]2CCN(C(=O)NC3CCCC3)CC[C@H]2S1(=O)=O | -23.9%
CCC[C@H]1CN(Cc2ccccc2C#N)C[C@@H]1NS(C)(=O)=O | -6.89%
CNC(=O)C1(c2cnccn2)CCCN1C(=O)c1ccn(C)n1 (stereo unspecified) | -1.48%
CC(C)(C)c1ncc2c(n1)CN(C(=O)c1ccncc1)C2 | -9.79%
O=C(c1cnccn1)N1CCN(Cc2csc(-c3ccccc3)n2)CC1 | 10.5%
Cc1ccccc1-n1c(C)cc(=O)[nH]c1=O | 26.3%
CCN1C[C@H]2[C@@H](C1)N(S(=O)(=O)c1cccnc1)CC[C@H]2OC | 45.6%
COCCNC(=O)CCNc1cc(C)nc(-c2ccncc2)n1 | -15.7%
CN(C)c1nc(NCc2cccnc2N)ncc1F | 0.515%
Cc1ncoc1C(=O)N1CCCC(c2ccc3c(N)nn(C)c3n2)C1 (stereo unspecified) | -4.28%
CC(NC(=O)NCCN1CCCCCC1=O)c1ccc(Cl)s1 (stereo unspecified) | -10.6%
Cc1nn(C)c(Cl)c1C1CCCN1Cc1nc(C2CC2)no1 (stereo unspecified) | -7.26%
Cc1csc([C@@H]2C[C@@H]3CCN(Cc4cnn(C)c4)C[C@H]3O2)n1 | -8.46%
CNC(=O)c1ccc(S(=O)(=O)NCCc2ccccn2)cc1 | 1.59%
